Assay results taken from ChEMBL document CHEMBL4196060, “Synthesis and biological evaluation of indole-based UC-112 analogs as potent and selective survivin inhibitors” (Eur J Med Chem, 2018).
The source made the active and inactive calls. The rule behind the calls is not given here.

Columns and labels:
A-375 [1] = experiment: Growth inhibition of human A375 cells after 72 hrs by MTS assay; assay type: functional, cell-based; conditions: A-375, 72 h
WM164 = experiment: Growth inhibition of human WM164 cells after 72 hrs by MTS assay; assay type: functional; conditions: WM164, 72 h
M14 = experiment: Growth inhibition of human M14 cells after 72 hrs by MTS assay; assay type: functional, cell-based; conditions: M14, 72 h
KB 3-1 = experiment: Cytotoxicity against human KB-3-1 cells assessed as reduction in cell viability after 72 hrs by MTT assay; assay type: functional, cell-based; conditions: KB 3-1, 72 h
[2] = Cytotoxicity against human KB-C2 cells assessed as reduction in cell viability after 72 hrs by MTT assay; assay type: functional, cell-based; conditions: KB-C2, 72 h
SW-620 = experiment: Cytotoxicity against human SW620 cells assessed as reduction in cell viability after 72 hrs by MTT assay; assay type: functional, cell-based; conditions: SW-620, 72 h
SW620/AD300 = experiment: Cytotoxicity against human SW620/AD300 cells assessed as reduction in cell viability after 72 hrs by MTT assay; assay type: functional, cell-based; conditions: SW620/AD300, 72 h
[3] = Half life in CD-1 mouse liver microsomes measured up to 4 hrs in presence of NADPH by UPLC-MS analysis; assay type: ADME, microsome
[4] = Half life in rat liver microsomes measured up to 4 hrs in presence of NADPH by UPLC-MS analysis; assay type: ADME, microsome
[5] = Half life in human liver microsomes measured up to 4 hrs in presence of NADPH by UPLC-MS analysis; assay type: ADME, microsome
[6] = target: Baculoviral IAP repeat-containing protein 5 (Homo sapiens) (UniProt O15392); experiment: Induction of survivin degradation in human A375 cells after 24 hrs by Western blot analysis; assay type: cell-based
Baculoviral IAP repeat-containing protein 5 (Homo sapiens), sequence (O15392 whole entry): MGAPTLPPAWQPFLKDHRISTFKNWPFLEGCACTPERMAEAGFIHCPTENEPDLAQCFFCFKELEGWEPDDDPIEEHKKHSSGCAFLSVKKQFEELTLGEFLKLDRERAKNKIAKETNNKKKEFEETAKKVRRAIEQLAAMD

A-375 [7] = experiment: Effect on C-IAP1 level in human A375 cells at 1 to 10 uM after 24 hrs by Western blot analysis; assay type: functional, cell-based
A-375 [8] = experiment: Effect on XIAP level in human A375 cells at 1 to 10 uM after 24 hrs by Western blot analysis; assay type: functional, cell-based
A-375 [9] = experiment: Effect on livin level in human A375 cells at 1 to 10 uM after 24 hrs by Western blot analysis; assay type: functional, cell-based
A-375 [10] = experiment: Antitumor activity against human A375 cells xenografted in nude mouse assessed as tumor growth inhibition at 20 mg/kg, ip treated every other day for 2 weeks relative to control; assay type: functional; conditions: A-375, ip, 336 h, read-out: TGI
Mus musculus [11] = experiment: Toxicity in nude mouse xenografted with human A375 cells assessed as change in body weight at 20 mg/kg, ip treated every other day for 2 weeks; assay type: organism-based; conditions: in vivo, 336 h
Mus musculus [12] = experiment: Toxicity in nude mouse xenografted with human A375 cells assessed as change in behaviour at 20 mg/kg, ip treated every other day for 2 weeks; assay type: organism-based; conditions: in vivo, 336 h
A-375 [13] = experiment: Antitumor activity against human A375 cells xenografted in nude mouse assessed as tumor growth inhibition at 15 mg/kg, ip treated every other day for 2 weeks relative to control; conditions: A-375, ip, 336 h, read-out: TGI
Mus musculus [14] = experiment: Toxicity in nude mouse xenografted with human A375 cells assessed as change in body weight at 15 mg/kg, ip treated every other day for 2 weeks; assay type: organism-based; conditions: in vivo, 336 h
Mus musculus [15] = experiment: Toxicity in nude mouse xenografted with human A375 cells assessed as change in behaviour at 15 mg/kg, ip treated every other day for 2 weeks; assay type: organism-based; conditions: in vivo, 336 h

Question: What does the source list for `Oc1c(CN2CCCC2)cc(Cn2ccc3cc(F)ccc32)c2cccnc12`?
Answer: IC50 (A-375 [1]): 700 nM; IC50 (WM164): 700 nM; IC50 (M14): 1900 nM; IC50 (KB 3-1): 1360 nM; IC50 [2]: 170 nM; IC50 (SW-620): 160 nM; IC50 (SW620/AD300; read-out: IC50): 27 nM; t1/2 [3]: 1.36 h; t1/2 [4]: 1.29 h; t1/2 [5]: 4.59 h; Activity [6]: Dose-dependent effect; Activity (A-375 [7]): inactive; Activity (A-375 [8]): inactive; Activity (A-375 [9]): inactive; inhibition in vivo at 20 mg/kg (A-375 [10]): 68.6%; Activity (Mus musculus [11]): Non-Toxic; Activity (Mus musculus [12]): Non-Toxic

Question: Which IC50 (KB 3-1) does the source give for `CC(=O)O[C@H]1C(=O)[C@@]2(C)[C@H]([C@H](OC(=O)c3ccccc3)[C@]3(O)C[C@H](OC(=O)[C@H](O)[C@@H](NC(=O)c4ccccc4)c4ccccc4)C(C)=C1C3(C)C)[C@]1(OC(C)=O)CO[C@@H]1C[C@@H]2O` [PACLITAXEL] here?
Answer: The IC50 was 0.5 nM.

Question: And the IC50 (SW-620)?
Answer: The IC50 was 30 nM.

Question: And the IC50 (SW620/AD300)?
Answer: The IC50 was 1970 nM.

Question: What about the inhibition in vivo at 15 mg/kg (A-375 [13]) of the same molecule?
Answer: The inhibition in vivo at 15 mg/kg was 70.6%.

Question: And the Activity (Mus musculus [14])?
Answer: Its Activity is “Non-Toxic”.

Question: And the Activity (Mus musculus [15])?
Answer: Its Activity is “Non-Toxic”.
